Results as given in patent US20140328940A1, “MODULATION OF AXON DEGENERATION” (Genentech, Inc., priority 2009, published 2014).
“Also recorded” adds a separate entry of the source.

Columns and labels:
[1] = toxin-induced degeneration of sympathetic neurons (MTT assay); format: cell-based; settings: Sprague-Dawley, rat, primary sympathetic neurons from cervical ganglia, 24 hour camptothecin, read-out: % viability (normalized)
Procedure: Sympathetic cervical ganglia were dissected from postnatal day 1 Sprague-Dawley rats (Charles River Labs) and collected in a dish containing Ultraculture media (Lonza) with 5% fetal bovine serum (Invitrogen). Ganglia were washed twice with serum-free Ultraculture media, and a final concentration of 0.1% trypsin (Worthington) was added and incubated with the tissue at 37° C. for 30 minutes. One percent DNase (Roche) solution in PBS was added to the ganglia and incubated at room temperature for 1-2 minutes. Ganglia were washed with Ultraculture and allowed to settle to the bottom of the tube. All wash media were removed and 1 mL plating media containing Ultraculture, 5% rat serum, 1% penicillin-streptomycin, 1% glutamax, 7 μM cytosine arabinoside (Sigma), and 50 ng/mL nerve growth factor (2.5S, Cedarlane Laboratory) was added to the tube. Ganglia were dissociated by trituration using a pipet (Rainin). The cell slurry was filtered over a […] cell strainer (Falcon) and cell number was counted. Sympathetic neurons were plated at a density of 5000-7500 cells/well (96-well dish), 200,000 cells/well (6-well plate), or 100,000 cells/well (8-well chamber slide) and grown for 4-5 days in 5% CO2 at 37° C. Every other day neurons were fed with fresh plating media containing 5-10 ng/mL NGF.
NGF withdrawal assays were performed as described in Example 14A. […]

[2] = test system: DRG neurons (axon vs. cell body compartment); assay: Campenot chamber local axon degeneration (anti-NGF in axon compartment); format: cell-based, mouse
Procedure: Teflon dividers (Tyler Research) were cleaned by washing in water and wiping them clean of any residual grease. Dividers were then soaked in Nochromix (Godax Laboratories)/sulfuric acid overnight, rinsed five times in distilled and autoclaved water (SQ water), boiled for 30 minutes, and then air-dried before use
Mouse laminin (5 μg/ml in sterile filtered water; Invitrogen) was added to PDL coated 35 mm dishes (BD Biosciences) and they were incubated for 1 hour at 37° C., followed by two rinses in SQ water. The dishes were vacuum-dried and then air-dried in a laminar flow hood for 15 minutes. Prepared dishes were then scored with a pin rake (Tyler Research). […] High vacuum grease (VWR) was added to each Teflon divider under a dissection scope. The laminin coated PDL dishes were inverted and dropped onto the Teflon divider, with additional pressure added by use of a toothpick in the non-track-containing regions. Dishes were incubated for 1 hour at 37° C. Five hundred microliters of NBM+MC (50 ng/ml NGF) solution was added to each of the side compartments, and a grease barrier was added in front of the center cell slot.
Free E13.5 spinal cords were dissected from mouse embryos and placed into NBM+MC (25 ng/ml NGF) solution. DRGs were detached from the spinal cord with a tungsten needle. An NBM+MC-lubricated P200 pipette was used to move DRGs into a 1.5 ml tube. DRGs were pelleted with a tabletop centrifuge for 30 seconds. The supernate was discarded and 0.05% Trypsin/EDTA (cold) was added. The pellet was resolubilized with a pipette and incubated at 37° C. for 15 minutes with constant agitation (650 RPM). The sample was again centrifuged and the supernate discarded. The pellet was resuspended in warm NBM+MC (50 ng/ml NGF) solution and triturated with a flamed glass pipette 20 times, followed by trituration with a fire-bored glass pipette another 20 times. The samples were again centrifuged and the resulting pellets were resuspended in 0.5 ml NBM+MC (50 ng/ml NGF) solution. The cells were diluted to a final concentration of 2.5×10^6 cells/ml. The cell suspensions were loaded into a 1 ml syringe with a 22 gauge needle. The center slot of the Campenot divider was filled using the syringe (to a volume of at least 50 μl). The Campenot chamber was incubated overnight at 37° C. 2.5 ml NGF+MC (50 ng/ml NGF) solution was added to the center compartment and the grease gate was removed. The outer medium (cell body compartment) was replaced after three days with 2.5 ml NBM+MC medium (with 25 ng/ml NGF). After five days in culture, one distal compartment was washed three times with warmed NBM+MC (no NGF) solution. After the third wash, 500 μl NBM+MC (no NGF) solution was added to the axon compartment in combination with either 0.5% DMSO or an inhibitor. The cell body compartment was replaced with 2.5 ml NBM+MC medium (with 25 ng/ml NGF) containing either 0.5% DMSO or inhibitor.
After 28 hours of anti-NGF antibody treatment, 8% PFA/30% sucrose solution (see above) was added directly to the culture medium at a 1:1 dilution and incubated for 30 minutes. The Teflon divider was removed after the first 15 minutes of addition. The system was washed once with 2.5 ml PBS prior to immunostaining. Neurons were blocked in 5% BSA/0.2% triton in PBS for 30 minutes. The primary antibody Tuj1 (Covance) was added to a final dilution of 1:1000 in PBS containing 2% BSA and incubated overnight at 4° C. The dish was washed once with PBS. […] The dish was washed twice with PBS, and a 22×22 mm coverslip (VWR) was added with 350 μl of fluoromount G (Electron Microscopy Sciences). The neurons were visualized by use of a fluorescence microscope.
As described above, E13.5 DRGs were isolated and grown for 5 days in a Campenot chamber.

[3] = test system: cerebellar granule neurons (CGNs); assay: serum deprivation/KCl reduction degeneration of cerebellar granule neurons; format: cell-based, mouse; settings: 5 mM KCl, 24 hours
ErbB kinase [4] = settings: read-out: Cellular IC50; heregulin induced tyrosine phosphorylation, MDA-MB-453 cells; published source; cited from earlier work
[5] = test system: dorsal root ganglion neurons; assay: EGF addition to DRG neurons maintained in NGF: degeneration; format: cell-based, mouse; settings: 100 μg/mL EGF
Procedure: Experiments were carried out to assess the effects of activation of EGFR by ligands, including EGF.
(§1) Dorsal Root Ganglia (DRG) immunoblots were prepared as follows. Primary cells used in the experiments were Charles River CD-1 E13 Dorsal Root Ganglia (DRG). The cells were maintained in N3/F12 (+25 ng/ml NGF) medium (Ham's F12 (23 ml), N3 supplement (1 ml), glucose (1 ml of 1 M glucose stock), 25 ng/ml Nerve Growth Factor 2.5 S, mouse (Roche 11362348001) in Ham's F12 (stock: 50 μg/ml-80° C.), which was filter-sterilized prior to use). The experiments also employed Triton lysis buffer (20 mM Tris pH 7.5, 150 mM NaCl, 0.1% Triton-X100, 100× Phosphatase inhibitor cocktail I (added fresh), 100× Phosphatase inhibitor cocktail II (added fresh), 1 tablet/10 ml Protease inhibitor tablet (added fresh)).
DRG explants were prepared on Day 0. Embryo dissections were carried out in L15 medium (dissection tools were soaked in 70% isopropanol, and dishes were set up on ice: 10 cm dishes (4 embryos per dish) and one 6 cm dish for spinal cords). E13.5 spinal cords were extracted into DMEM+10% FBS. […]
(§2) The goal of these experiments was to see if activation of EGFR by EGF would be sufficient to drive degeneration. […] To ensure that EGF is capable of activating EGFR/ErbBs in the neuronal cultures used in these assays, ERK activation was assessed (ERK is a downstream target of EGFR).

ERK = ERK activation by EGF in DRG cultures (Western blot); format: cell-based, mouse; settings: 100 μg/mL EGF; 30 minutes to 1 hour
Procedure: as §1
DRG explants were prepared on Day 0. […]
Immunoblotting was carried out by aspiration of media with a pipette tip, washing twice with ice-cold sterile PBS, and removal of all PBS using an aspirator with a pipette tip or kimwipes. […] Quantification was carried out by choosing a background method and standard bands that minimize negative/counter-intuitive values: i.e., top/bottom, right/left, user-defined (user-defined). […]
as §2

DRGs = assay: G-protein/GPCR inhibitors in NGF withdrawal-induced degeneration in DRGs; format: cell-based, mouse; settings: 0.01 μg/mL, 0.1 μg/mL, or 1 μg/mL (FIG. 51)
Procedure: The assays described herein identified several inhibitors of G-proteins and G-protein coupled receptors (GPCRs) that decrease degeneration in neurons. Experiments were performed in DRGs to verify the role of G-proteins and GPCRs in degeneration pathways. The experimental protocols used in these experiments are the same as those described in Example 14. Pertussis toxin and SCH 202676 were purchased from Tocris Bioscience.

[6] = peripheral neuropathy in patients treated with paclitaxel (adverse event analysis); format: in vivo, human; settings: combination with paclitaxel; first 400 patients enrolled; placebo+paclitaxel 26.4%; p=0.012 Fisher's exact
Excerpt: Tarceva® (erlotinib) is an EGFR kinase inhibitor. Treatment of patients with paclitaxel and other chemotherapeutic agents is known to lead to peripheral neuropathy (reviewed in Wilkes, Semin. Oncol. Nurs. 23(3):162-173, 2007).

[7] = test system: dorsal spinal cord explants; assay: dorsal spinal cord (DSC) explant degeneration; format: cell-based; settings: 3.4 μM, 11.1 μM, 33.3 μM, and 100 μM
Excerpt: DSCs grow out axons over a period of days, but if they are not rescued with the addition of a survival factor, they will eventually degenerate.

ErbB kinase [8] = biological target: ErbB kinase (Homo sapiens, UniProt P04626); settings: protein tyrosine phosphorylation, 3T3-Her2 cells; published source; read-out: Cellular IC50; cited from earlier work
ErbB kinase (Homo sapiens, UniProt P04626), sequence (P04626 23-1255): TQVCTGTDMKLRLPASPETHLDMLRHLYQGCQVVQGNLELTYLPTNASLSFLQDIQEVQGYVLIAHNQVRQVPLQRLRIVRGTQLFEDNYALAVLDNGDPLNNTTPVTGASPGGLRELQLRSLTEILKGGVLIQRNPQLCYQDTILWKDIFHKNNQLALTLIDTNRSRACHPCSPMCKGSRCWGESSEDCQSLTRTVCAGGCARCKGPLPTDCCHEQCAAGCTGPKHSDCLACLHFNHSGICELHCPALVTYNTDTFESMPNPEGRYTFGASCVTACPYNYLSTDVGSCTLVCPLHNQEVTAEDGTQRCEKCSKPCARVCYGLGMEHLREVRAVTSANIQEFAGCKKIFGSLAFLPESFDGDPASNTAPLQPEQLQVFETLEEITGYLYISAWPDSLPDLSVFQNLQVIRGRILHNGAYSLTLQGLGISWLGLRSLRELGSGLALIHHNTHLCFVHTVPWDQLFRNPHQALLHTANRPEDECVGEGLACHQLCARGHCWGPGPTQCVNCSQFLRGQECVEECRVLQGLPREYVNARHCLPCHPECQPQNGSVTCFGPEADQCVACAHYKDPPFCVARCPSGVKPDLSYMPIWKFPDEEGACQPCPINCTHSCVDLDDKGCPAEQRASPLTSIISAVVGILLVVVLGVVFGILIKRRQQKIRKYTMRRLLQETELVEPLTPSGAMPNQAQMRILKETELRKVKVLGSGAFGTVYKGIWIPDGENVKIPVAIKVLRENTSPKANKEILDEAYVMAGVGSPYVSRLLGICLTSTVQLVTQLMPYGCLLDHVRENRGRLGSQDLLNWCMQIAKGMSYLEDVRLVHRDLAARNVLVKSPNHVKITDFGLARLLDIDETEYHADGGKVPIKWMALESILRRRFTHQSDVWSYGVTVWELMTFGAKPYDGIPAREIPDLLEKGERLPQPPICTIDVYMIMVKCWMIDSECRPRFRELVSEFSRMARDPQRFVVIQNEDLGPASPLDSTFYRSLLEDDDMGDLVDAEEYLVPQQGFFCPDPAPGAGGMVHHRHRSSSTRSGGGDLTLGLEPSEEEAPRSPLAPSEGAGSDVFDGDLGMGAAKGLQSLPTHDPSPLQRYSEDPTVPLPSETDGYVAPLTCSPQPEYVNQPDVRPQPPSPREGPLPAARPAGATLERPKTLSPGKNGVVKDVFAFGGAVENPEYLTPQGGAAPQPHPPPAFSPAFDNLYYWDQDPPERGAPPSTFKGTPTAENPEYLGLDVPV

`CC[C@@]1(O)C(=O)OCc2c1cc1n(c2=O)Cc2cc3ccccc3nc2-1` [camptothecin] gave a viability at 24 h [1] of 79%.

In the case of `N#C/C(=C\c1ccc(O)c(O)c1)C(=O)NCCCc1ccccc1` [AG555], the “formation of varicosities in locally NGF-deprived axons” value ([2]; 30 μM SB415, 15 μM Act D in cell body compartment, 10 μM AG555, 30 μM SB239 in axon compartment) is reported as “fewer varicosities”, the “Axon Compartment (protection of NGF-deprived axons)” value ([2]; inhibitor 10 μM in axon compartment) is reported as “did not degenerate; also recorded: protected from local degeneration; also recorded: Yes (4)” and the “Cell Body Compartment (protection of NGF-deprived axons)” value ([2]; inhibitor 10 μM in cell body compartment) is reported as “failed to prevent degeneration; also recorded: No (4)”. For the same compound, the “protection of cerebellar granule neurons from serum deprivation/KCl reduction” value ([3]; 1 μM) was “protect”, the “protection of cerebellar granule neurons from serum deprivation/KCl reduction” value ([3]; 10 μM) was “protect” and the IC50 (ErbB kinase [4]) was 5 nM.

For EGF: ErbB1 ligand added to DRG neurons, the “induction of axon degeneration” value [5] was “does not cause degeneration” and the “ERK activity (phosphorylation of ERK, Western blot)” value (ERK) was “increased”.

In the case of Pertussis toxin, the “degeneration in neurons following NGF withdrawal” value (DRGs) is reported as “decreases”.

For `C#Cc1cccc(Nc2ncnc3cc(OCCOC)c(OCCOC)cc23)c1` [Tarceva, N-(3-ethynylphenyl)-6,7-bis(2-methoxyethoxy)quinazolin-4-amine], the “patients with peripheral neuropathy” value [6] was 16.3 % of patients and the “degeneration in dorsal spinal cord explants” value [7] was “can delay; also recorded: blocks”.

In the case of `C=CC(=O)Nc1ccc2ncnc(Nc3cccc(Br)c3)c2c1` [PD168393], the “Axon Compartment (protection of NGF-deprived axons)” value ([2]; inhibitor 5 μM in axon compartment) is given as “Yes (1)”, the “Cell Body Compartment (protection of NGF-deprived axons)” value ([2]; inhibitor 5 μM in cell body compartment) is given as “No (1)” and the IC50 (ErbB kinase [8]) is given as 100 nM.
